Experimental data published in patent publication US20210330611A1, “THERAPY FOR NEUROLOGICAL DISEASES/DISORDERS” (priority 2020, published 2021).
“And” between values parts separate entries of the source, which are not always exact repeats. Equal values may be shown once. Where a name gives a salt, the structure may show the parent alone. Read-outs that look alike come from different tables or passages of the source.

Tests used:
[1] = tested on: fibrin- and LPS-induced microglia activation; assay: cells; assay type: cell-based, rat
primary rat microglia [2] = assay: Cell toxicity (dead cells, size <150 μm2) in coated fibrin (cFib) assay;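 note: share of dead cells sized under 150 µm2 at 10 µM in fibrin-stimulated microglia HTS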
primary rat microglia [3] = assay: Cell toxicity (dead cells, size <150 μm2) in LPS assay
[4] = tested on: fibrin-induced microglia activation; assay: Image-based assay of fibrin-induced microglia activation (HTS and dose response); assay type: cell-based, rat; settings: Rattus norvegicus, Microglia, primary microglia HTS, fibrin stimulation; increased cell size (>800 μm^2) as marker of activation; read-out: Fibrin % inhibition
[5] = tested on: LPS-induced microglia activation; assay: Image-based assay of LPS-induced microglia activation (HTS and dose response); assay type: cell-based, rat; settings: for inhibition at 10 µM: Rattus norvegicus, Microglia, read-out: LPS % inhibition
[6] = quadrant by fibrin and LPS inhibition in HTS of 1907 compounds
[7] = primary microglia HTS, fibrin stimulation, decreased size (<150 μm^2) as marker of toxicity
[8] = primary microglia HTS, LPS stimulation, decreased size (<150 μm^2) as marker of toxicity
[9] = primary HTS, 10 μM, LPS-stimulated primary microglia
[10] = primary HTS, 10 μM, fibrin assay, dead cells size <150 μm2
[11] = primary HTS, 10 μM, LPS assay, dead cells size <150 μm2
[12] = primary microglia HTS, fibrin stimulation, toxicity = cell size <150 μm2
[13] = primary microglia HTS, LPS stimulation, toxicity = cell size <150 μm2
[14] = 48 h, primary microglia HTS, LPS stimulation, activation = cell size >800 μm2
[15] = primary microglia HTS, 10 μM, LPS-stimulated, cell size >800 μm^2 as marker of activation
[16] = HTS of 1907 compounds, quadrant by fibrin and LPS inhibition
[17] = primary microglia HTS, 10 μM, fibrin assay, cell size <150 μm^2 as marker of toxicity
[18] = primary microglia HTS, 10 μM, LPS assay, cell size <150 μm^2 as marker of toxicity

Row | SMILES | Quadrant (FIG. 5b) [1, 6] | Fibrin % cell toxicity (primary rat microglia [2]; [7]) | LPS % cell toxicity (primary rat microglia [3]; [8]) | Fibrin % cell toxicity (primary rat microglia [2]; [12]) | LPS % cell toxicity (primary rat microglia [3]; [13]) | other results
1 | CCCC1O[C@@H]2C[C@H]3[C@@H]4CCC5=CC(=O)C=C[C@]5(C)[C@H]4[C@@H](O)C[C@]3(C)[C@]2(C(=O)CO)O1 (stereo partly drawn) [Budesonide] | Q2 | 3% and 6% | 5% and 1% | – | – | inhibition at 10 µM [4]: 110%
2 | CC(C)(O/N=C(\C(=O)N[C@@H]1C(=O)N2C(C(=O)[O-])=C(C[n+]3ccccc3)CS[C@H]12)c1csc(N)n1)C(=O)O [Ceftazidime] | – | – | – | – | – | inhibition at 10 µM [5, 9]: 17%; LPS % inhibition [5, 9]: 30%; Quadrant (FIG. 5b) ([1]; primary HTS, 10 μM): Q4; Fibrin % cell toxicity (primary rat microglia [2]; [10]): 1%; LPS % cell toxicity (primary rat microglia [3]; [11]): 1%
3 | CN(C)CC/C=C1/c2ccccc2Sc2ccc(Cl)cc21 [Chlorprothixene] | – | – | – | – | – | Quadrant (FIG. 5b) ([1]; primary HTS, 10 μM): Q4; Fibrin % cell toxicity (primary rat microglia [2]; [10]): 1%; LPS % cell toxicity (primary rat microglia [3]; [11]): 1% and 0%
4 | CN(C)CCCC1(c2ccc(F)cc2)OCc2cc(C#N)ccc21 (stereo not drawn) [Citalopram] | – | – | – | – | – | inhibition at 10 µM [5, 9]: 10%; LPS % inhibition [5, 9]: 8%; Quadrant (FIG. 5b) ([1]; primary HTS, 10 μM): Q4; Fibrin % cell toxicity (primary rat microglia [2]; [10]): 0%; LPS % cell toxicity (primary rat microglia [3]; [11]): 0%
5 | Oc1ccc(C2CNCCc3c2cc(O)c(O)c3Cl)cc1 (stereo not drawn) [Fenoldopam] | Q4 | – | – | 1% and 0% | 0% | –
6 | CC(C)(C)NC(=O)[C@H]1CC[C@H]2[C@@H]3CC[C@H]4NC(=O)C=C[C@]4(C)[C@H]3CC[C@]12C [Finasteride] | Q4 | – | – | 1% and 0% | 1% and 0% | –
7 | CC(=O)[C@@]1(O)CC[C@H]2[C@@H]3C[C@H](C)C4=CC(=O)C=C[C@]4(C)[C@@]3(F)[C@@H](O)C[C@@]21C [Fluorometholone] | Q2 | 6% and 3% | 1% and 7% | – | – | inhibition at 10 µM [4]: 104%
8 | CCC(=O)O[C@]1(C(=O)SCF)[C@H](C)C[C@H]2[C@@H]3C[C@H](F)C4=CC(=O)C=C[C@]4(C)[C@@]3(F)[C@@H](O)C[C@@]21C [Fluticasone Propionate] | Q2 | 7% and 5% | 3% and 4% | – | – | inhibition at 10 µM [4]: 108%
9 | Nc1nc2ncc(CNc3ccc(C(=O)N[C@@H](CCC(=O)O)C(=O)O)cc3)nc2c(=O)[nH]1 [Folic Acid] | Q4 | – | – | 1% | 0% and 1% | inhibition at 10 µM [5, 14]: 22%
10 | NCC1(CC(=O)O)CCCCC1 [Gabapentin] | Q4 | – | – | 1% | 1% and 0% | inhibition at 10 µM [5, 14]: 19%
11 | N=C(N)NC(=O)Cc1c(Cl)cccc1Cl [Guanfacine] | Q4 | – | – | 1% | 0% | –
12 | OCCOCCN1CCN(C(c2ccccc2)c2ccc(Cl)cc2)CC1 (stereo not drawn) [Hydroxyzine] | Q4 | – | – | 0% and 1% | 0% | –
13 | CCCCCN(C)CCC(O)(P(=O)(O)O)P(=O)(O)O [Ibandronate] | Q4 | – | – | 0% and 1% | 0% | –
14 | CC[C@H](C)[C@H]1O[C@]2(CC[C@@H]1C)C[C@@H]1C[C@@H](C/C=C(\C)[C@@H](O[C@H]3C[C@H](OC)[C@@H](O[C@H]4C[C@H](OC)[C@@H](O)[C@H](C)O4)[C@H](C)O3)[C@@H](C)/C=C/C=C3\CO[C@@H]4[C@H](O)C(C)=C[C@@H](C(=O)O1)[C@]34O)O2 [Ivermectin] | Q4 | – | – | 1% and 0% | 0% | LPS % inhibition ([5]; primary microglia HTS, LPS stimulation, activation = cell size >800 μm2): 10% and 19%
15 | Nc1ccn([C@@H]2CS[C@H](CO)O2)c(=O)n1 [Lamivudine] | Q4 | – | – | 1% | 0% | –
16 | CC(Oc1c(Cl)cccc1Cl)C1=NCCN1 (stereo not drawn) [Lofexidine] | Q4 | – | – | 0% and 1% | 0% | –

Row | SMILES | Quadrant (FIG. 5b) [1, 6] | Fibrin % cell toxicity (primary rat microglia [2]; [7]) | LPS % cell toxicity (primary rat microglia [3]; [8]) | Fibrin % cell toxicity (primary rat microglia [2]; [12]) | LPS % cell toxicity (primary rat microglia [3]; [13]) | other results
17 | CNC[C@H](O)[C@@H](O)[C@H](O)[C@H](O)CO [Meglumine] | Q4 | 0% and 1% | 0% and 1% | – | – | –
18 | C[C@@H](O)[C@H]1C(=O)N2C(C(=O)O)=C(S[C@@H]3CN[C@H](C(=O)N(C)C)C3)[C@H](C)[C@H]12 [Meropenem] | Q4 | 1% | 0% | – | – | –
19 | C[C@H](N)[C@H](O)c1cccc(O)c1 [Metaraminol] | Q4 | 0% and 1% | 1% | – | – | –
20 | CC(=O)/N=c1/sc(S(N)(=O)=O)nn1C [Methazolamide] | Q4 | 1% | 0% | – | – | inhibition at 10 µM ([5]; 48 h, primary microglia HTS, LPS stimulation, increased cell size (>800 μm^2) as marker of activation): 10%
21 | C[N+]1(C)[C@@H]2C[C@@H](OC(=O)[C@H](CO)c3ccccc3)C[C@H]1[C@@H]1O[C@@H]12 [Methscopolamine Bromide] | Q4 | 1% | 0% | – | – | –
22 | CC[C@@H](CO)NC(=O)[C@@H]1C=C2c3cccc4c3c(cn4C)C[C@H]2N(C)C1 [Methysergide Maleate] | Q4 | 0% and 1% | 0% | – | – | –
23 | CC(C)[C@H]1CC[C@H](C(=O)N[C@H](Cc2ccccc2)C(=O)O)CC1 [Nateglinide] | Q4 | 1% | 1% and 0% | – | – | –
24 | CN1Cc2c(N)cccc2C(c2ccccc2)C1 (stereo not drawn) [Nomifensine] | Q4 | 0% | 0% | – | – | –
25 | NC[C@H](O)c1ccc(O)c(O)c1 [Norepinephrine] | Q4 | 1% | 0% | – | – | –
26 | C[C@@H]1[C@H](O)[C@@H](C)/C=C/C=C/CC/C=C/C=C/C=C/C=C/C(O[C@H]2O[C@H](C)[C@@H](O)[C@H](N)[C@@H]2O)CC2O[C@](O)(CC(O)C(O)CCC(O)CC(O)CC(O)CC(=O)O[C@H]1C)CC(O)C2C(=O)O (stereo partly drawn) [Nystatin] | Q4 | 0% and 1% | 1% | – | – | –
27 | CCN1CCCC1CNC(=O)c1cc(S(N)(=O)=O)ccc1OC (stereo not drawn) [Sulpiride] | – | – | – | – | – | inhibition at 10 µM [5, 15]: 11%; LPS % inhibition [5, 15]: 7%; Quadrant (FIG. 5b) [1, 16]: Q4; Fibrin % cell toxicity (primary rat microglia [2]; [17]): 1%; LPS % cell toxicity (primary rat microglia [3]; [18]): 0%
28 | C[C@]1(Cn2ccnn2)[C@H](C(=O)O)N2C(=O)C[C@H]2S1(=O)=O [Tazobactam] | – | – | – | – | – | Quadrant (FIG. 5b) [1, 16]: Q4; Fibrin % cell toxicity (primary rat microglia [2]; [17]): 1% and 0%; LPS % cell toxicity (primary rat microglia [3]; [18]): 0%
29 | CC(C)N1CCN(c2ccc(OCC3COC(Cn4cncn4)(c4ccc(Cl)cc4Cl)O3)cc2)CC1 (stereo not drawn) [Terconazole] | – | – | – | – | – | Quadrant (FIG. 5b) [1, 16]: Q4; Fibrin % cell toxicity (primary rat microglia [2]; [17]): 1%; LPS % cell toxicity (primary rat microglia [3]; [18]): 0%
30 | COc1cccc(C2(O)CCCCC2CN(C)C)c1 (stereo not drawn) [Tramadol Hydrochloride] | – | – | – | – | – | Fibrin % cell toxicity (primary rat microglia [2]; [17]): 0%; LPS % cell toxicity (primary rat microglia [3]; [18]): 0%
31 | COc1cccc(C2(O)CCCCC2CN(C)C)c1 (stereo not drawn) [Tramadol] | – | – | – | – | – | Quadrant (FIG. 5b) [1, 16]: Q4; Fibrin % cell toxicity (primary rat microglia [2]; [17]): 1%; LPS % cell toxicity (primary rat microglia [3]; [18]): 0%
